In ChEMBL document CHEMBL4251681, “Isochromophilones A-F, Cytotoxic Chloroazaphilones from the Marine Mangrove Endophytic Fungus Diaporthe sp. SCSIO 41011” (J Nat Prod, 2018):
Activity calls are given as the source filed them. No cut-off for these calls is given here.

Key:
[1] = tested on: ACHN; test: Cytotoxicity against human ACHN cells after 72 hrs by CCK-8 assay; format: functional, cell-based
[2] = tested on: 786-0; test: Cytotoxicity against human 786-O cells after 72 hrs by CCK-8 assay; format: functional, cell-based; settings: 786-0, 72 h
[3] = tested on: OS-RC-2; test: Cytotoxicity against human OS-RC2 cells after 72 hrs by CCK-8 assay; format: functional, cell-based; settings: OS-RC-2, 72 h
[4] = tested on: 786-0; test: Cell cycle arrest in human 786-O cells at 2.5 to 10 uM after 24 hrs by […] based flow cytometry; format: functional
[5] = tested on: 786-0; test: Induction of apoptosis in human 786-O cells assessed as viable cells at 2.5 uM after 24 hrs by annexin V-FITC/propidium iodide staining based flow cytometry (reference value: 100%); format: functional; settings: 786-0, 24 h, read-out: Activity
[6] = tested on: 786-0; test: Induction of apoptosis in human 786-O cells assessed as early apoptotic cells at 2.5 uM after 24 hrs by annexin V-FITC/propidium iodide staining based flow cytometry (reference value: 0%); format: functional
[7] = tested on: 786-0; test: Induction of apoptosis in human 786-O cells assessed as late apoptotic cells at 2.5 uM after 24 hrs by annexin V-FITC/propidium iodide staining based flow cytometry (reference value: 0%); format: functional
[8] = tested on: 786-0; test: Induction of apoptosis in human 786-O cells assessed as necrotic cells at 2.5 uM after 24 hrs by annexin V-FITC/propidium iodide staining based flow cytometry (reference value: 0%); format: functional
[9] = tested on: 786-0; test: Induction of apoptosis in human 786-O cells assessed as viable cells at 5 uM after 24 hrs by annexin V-FITC/propidium iodide staining based flow cytometry (reference value: 100%); format: functional; settings: 786-0, 24 h, read-out: Activity
[10] = tested on: 786-0; test: Induction of apoptosis in human 786-O cells assessed as early apoptotic cells at 5 uM after 24 hrs by annexin V-FITC/propidium iodide staining based flow cytometry (reference value: 0%); format: functional
[11] = tested on: 786-0; test: Induction of apoptosis in human 786-O cells assessed as late apoptotic cells at 5 uM after 24 hrs by annexin V-FITC/propidium iodide staining based flow cytometry (reference value: 0%); format: functional
[12] = tested on: 786-0; test: Induction of apoptosis in human 786-O cells assessed as necrotic cells at 5 uM after 24 hrs by annexin V-FITC/propidium iodide staining based flow cytometry (reference value: 0%); format: functional
[13] = tested on: 786-0; test: Induction of apoptosis in human 786-O cells assessed as viable cells at 10 uM after 24 hrs by annexin V-FITC/propidium iodide staining based flow cytometry (reference value: 100%); format: functional; settings: 786-0, 24 h, read-out: Activity
[14] = tested on: 786-0; test: Induction of apoptosis in human 786-O cells assessed as early apoptotic cells at 10 uM after 24 hrs by annexin V-FITC/propidium iodide staining based flow cytometry (reference value: 0%); format: functional
[15] = tested on: 786-0; test: Induction of apoptosis in human 786-O cells assessed as late apoptotic cells at 10 uM after 24 hrs by annexin V-FITC/propidium iodide staining based flow cytometry (reference value: 0%); format: functional
[16] = tested on: 786-0; test: Induction of apoptosis in human 786-O cells assessed as necrotic cells at 10 uM after 24 hrs by annexin V-FITC/propidium iodide staining based flow cytometry (reference value: 0%); format: functional
[17] = tested on: 786-0; test: Induction of apoptosis in human 786-O cells assessed as viable cells at 2.5 uM after 48 hrs by annexin V-FITC/propidium iodide staining based flow cytometry (reference value: 100%); format: functional; settings: 786-0, 48 h, read-out: Activity
[18] = tested on: 786-0; test: Induction of apoptosis in human 786-O cells assessed as early apoptotic cells at 2.5 uM after 48 hrs by annexin V-FITC/propidium iodide staining based flow cytometry (reference value: 0%); format: functional
[19] = tested on: 786-0; test: Induction of apoptosis in human 786-O cells assessed as late apoptotic cells at 2.5 uM after 48 hrs by annexin V-FITC/propidium iodide staining based flow cytometry (reference value: 0%); format: functional
[20] = tested on: 786-0; test: Induction of apoptosis in human 786-O cells assessed as necrotic cells at 2.5 uM after 48 hrs by annexin V-FITC/propidium iodide staining based flow cytometry (reference value: 0%); format: functional
[21] = tested on: 786-0; test: Induction of apoptosis in human 786-O cells assessed as viable cells at 5 uM after 48 hrs by annexin V-FITC/propidium iodide staining based flow cytometry (reference value: 100%); format: functional; settings: 786-0, 48 h, read-out: Activity
[22] = tested on: 786-0; test: Induction of apoptosis in human 786-O cells assessed as early apoptotic cells at 5 uM after 48 hrs by annexin V-FITC/propidium iodide staining based flow cytometry (reference value: 0%); format: functional
[23] = tested on: 786-0; test: Induction of apoptosis in human 786-O cells assessed as late apoptotic cells at 5 uM after 48 hrs by annexin V-FITC/propidium iodide staining based flow cytometry (reference value: 0%); format: functional
[24] = tested on: 786-0; test: Induction of apoptosis in human 786-O cells assessed as necrotic cells at 5 uM after 48 hrs by annexin V-FITC/propidium iodide staining based flow cytometry (reference value: 0%); format: functional
[25] = tested on: 786-0; test: Induction of apoptosis in human 786-O cells assessed as viable cells at 10 uM after 48 hrs by annexin V-FITC/propidium iodide staining based flow cytometry (reference value: 100%); format: functional; settings: 786-0, 48 h, read-out: Activity
[26] = tested on: 786-0; test: Induction of apoptosis in human 786-O cells assessed as early apoptotic cells at 10 uM after 48 hrs by annexin V-FITC/propidium iodide staining based flow cytometry (reference value: 0%); format: functional
[27] = tested on: 786-0; test: Induction of apoptosis in human 786-O cells assessed as late apoptotic cells at 10 uM after 48 hrs by annexin V-FITC/propidium iodide staining based flow cytometry (reference value: 0%); format: functional
[28] = tested on: 786-0; test: Induction of apoptosis in human 786-O cells assessed as necrotic cells at 10 uM after 48 hrs by annexin V-FITC/propidium iodide staining based flow cytometry (reference value: 0%); format: functional
[29] = tested on: 786-0; test: Induction of apoptosis in human 786-O cells assessed as viable cells at 2.5 uM after 72 hrs by annexin V-FITC/propidium iodide staining based flow cytometry (reference value: 100%); format: functional; settings: 786-0, 72 h, read-out: Activity
[30] = tested on: 786-0; test: Induction of apoptosis in human 786-O cells assessed as early apoptotic cells at 2.5 uM after 72 hrs by annexin V-FITC/propidium iodide staining based flow cytometry (reference value: 0%); format: functional
[31] = tested on: 786-0; test: Induction of apoptosis in human 786-O cells assessed as late apoptotic cells at 2.5 uM after 72 hrs by annexin V-FITC/propidium iodide staining based flow cytometry (reference value: 0%); format: functional
[32] = tested on: 786-0; test: Induction of apoptosis in human 786-O cells assessed as necrotic cells at 2.5 uM after 72 hrs by annexin V-FITC/propidium iodide staining based flow cytometry (reference value: 0%); format: functional
[33] = tested on: 786-0; test: Induction of apoptosis in human 786-O cells assessed as viable cells at 5 uM after 72 hrs by annexin V-FITC/propidium iodide staining based flow cytometry (reference value: 100%); format: functional; settings: 786-0, 72 h, read-out: Activity
[34] = tested on: 786-0; test: Induction of apoptosis in human 786-O cells assessed as early apoptotic cells at 5 uM after 72 hrs by annexin V-FITC/propidium iodide staining based flow cytometry (reference value: 0%); format: functional
[35] = tested on: 786-0; test: Induction of apoptosis in human 786-O cells assessed as late apoptotic cells at 5 uM after 72 hrs by annexin V-FITC/propidium iodide staining based flow cytometry (reference value: 0%); format: functional
[36] = tested on: 786-0; test: Induction of apoptosis in human 786-O cells assessed as necrotic cells at 5 uM after 72 hrs by annexin V-FITC/propidium iodide staining based flow cytometry (reference value: 0%); format: functional
[37] = tested on: 786-0; test: Induction of apoptosis in human 786-O cells assessed as viable cells at 10 uM after 72 hrs by annexin V-FITC/propidium iodide staining based flow cytometry (reference value: 100%); format: functional; settings: 786-0, 72 h, read-out: Activity
[38] = tested on: 786-0; test: Induction of apoptosis in human 786-O cells assessed as early apoptotic cells at 10 uM after 72 hrs by annexin V-FITC/propidium iodide staining based flow cytometry (reference value: 0%); format: functional
[39] = tested on: 786-0; test: Induction of apoptosis in human 786-O cells assessed as late apoptotic cells at 10 uM after 72 hrs by annexin V-FITC/propidium iodide staining based flow cytometry (reference value: 0%); format: functional
[40] = tested on: 786-0; test: Induction of apoptosis in human 786-O cells assessed as necrotic cells at 10 uM after 72 hrs by annexin V-FITC/propidium iodide staining based flow cytometry (reference value: 0%); format: functional

Work on `CC[C@H](C)/C=C(C)/C=C/C1=CC2=C(Cl)[C@H](OC)[C@]3(C)O[C@@](C)(OC)[C@H](C(C)=O)[C@H]3C2=CO1` yielded an IC50 [1] of 14 µM, an IC50 [2] of 8.9 µM and an IC50 [3] of 13 µM. For the same compound, the Activity [4] was “inactive”, the viability at 2.5 µM [5] was 93.3% and the Activity [6] was 0.8%. It also gave an Activity [7] of 1.5%, an Activity [8] of 4.4% and a viability at 5 µM [9] of 87%. The Activity [10] was 0.6%, the Activity [11] was 2% and the Activity [12] was 10.4%. The viability at 10 µM [13] was 60.9%, the Activity [14] was 2.7% and the Activity [15] was 7.5%. For the same compound, the Activity [16] was 28.8%, the viability at 2.5 µM [17] was 93.7% and the Activity [18] was 2%. It also gave an Activity [19] of 1.7%, an Activity [20] of 2.5% and a viability at 5 µM [21] of 86.1%. The Activity [22] was 2.8%, the Activity [23] was 2.3% and the Activity [24] was 8.9%. The viability at 10 µM [25] was 6.6%, the Activity [26] was 11.2% and the Activity [27] was 45.5%. For the same compound, the Activity [28] was 36.7%, the viability at 2.5 µM [29] was 90.7% and the Activity [30] was 1.5%. It also gave an Activity [31] of 1.8%, an Activity [32] of 6% and a viability at 5 µM [33] of 85.9%. For the same compound, the Activity [34] was 3.5%, the Activity [35] was 4% and the Activity [36] was 6.6%. It also gave a viability at 10 µM [37] of 0.5%, an Activity [38] of 27.4% and an Activity [39] of 70.7%. For the same compound, the Activity [40] was 1.4%.
Compound `CC[C@H](C)/C=C(C)/C=C/C1=CC2=C(Cl)C(=O)[C@](C)(O)[C@@H](O)[C@H]2CO1` has an IC50 [1] greater than 50 µM, an IC50 [2] of 48 µM and an IC50 [3] of 4.9 µM.
With `CC[C@H](C)/C=C(C)/C=C/C1=CC2=C(Cl)[C@H](O)[C@]3(C)OC(=O)[C@H](C(C)=O)[C@H]3C2=CO1` the IC50 [1] was 27 µM, the IC50 [2] was 34 µM and the IC50 [3] was 45 µM.
`CC[C@H](C)/C=C(C)/C=C/C1=CC2=C(Cl)C(=O)[C@](C)(O)[C@@H](CC(C)=O)C2=CO1` gave an IC50 [1] of 4.4 µM, an IC50 [2] of 3 µM and an IC50 [3] of 3.9 µM.
Work on `CC[C@H](C)/C=C(C)/C=C/C1=CC2=C(Cl)C(=O)[C@]3(C)OC(=O)/C(=C(\C)O)[C@]3(O)[C@@]23O[C@H]3O1` yielded an IC50 [1] of 13 µM, an IC50 [2] of 10 µM and an IC50 [3] of 38 µM.
`CC[C@H](C)/C=C(C)/C=C/C1=CC2=C(Cl)[C@H](OC)[C@]3(C)O[C@](C)(OC)[C@H](C(C)=O)[C@H]3C2=CO1` showed an IC50 [1] greater than 50 µM, an IC50 [2] of 38 µM and an IC50 [3] of 44 µM.
